Patent US9808004B2, “Synergistic combination to improve grape color and to alter sensory characteristics of wine” (Valent BioSciences Corporation, priority 2007, dated 2017)

Assays:
[1] = Quality of wine from treated Cabernet Sauvignon grapes (colour density, phenolics, tasting panel score); parameters: species or system grape; settings: for Wine assessment: tasting panel score from 5 characteristics (color intensity, aroma intensity, body/fullness, flavor intensity, finish), 200 ppm of each compound at veraison
Method: (§1) A replicated field experiment was conducted on the red wine grape cultivar ‘Cabernet Sauvignon’ in the Riverland growing region of South Australia. The vineyard was 19 years old with a vine spacing of 3 m by 3 m. The plot size was nine vines/replicate with three replicates/treatment. […] Treatments were mixed with the adjuvant Agral 600 (10 mL/100 L v/v; CropCare Australasia, Pty Ltd.).

[2] = system: red table grape cultivar 'Crimson Seedless'; test: Replicated field experiment on Crimson Seedless table grapes: colour development (harvestable clusters), firmness, berry weight, Brix; Synergy Index; settings: for Firmness: at harvest; for Cumulative harvestable clusters: foliar, veraison plus seven days, Crimson Seedless; for Effect on cumulative harvestable cluster number (in words): applied alone, dose-dependent, 88 to 877 mg/vine; for Dose acting alone which produced the end point (QA, QB): end point 24.7 cumulative harvestable clusters
Excerpt: The vineyard was 12 years old and on overhead trellis with a vine spacing of 12 ft by 7 ft (518 vines/acre). Plot size was three vines/replicate, with six replicates/treatments. The area evaluated within each plot was one center vine and two half vines on each side for a total of two vines. Applications were made seven days after veraison (beginning of berry softening). On the day of application, red coloration was developing on about 10% of the berries. […] All treatments were mixed with the adjuvant Latron B-1956 (0.05% v/v; Dow AgroSciences LLC, Indianapolis, Ind.). Treatments were applied with a backpack mist blower at 200 gallons/acre (757 l/acre).
The total grape clusters were counted on the day of application. After treatment, the plots were evaluated weekly for color development by counting the number of harvestable colored grape clusters in each plot. All harvestable colored clusters were removed 79 days later to eliminate over-mature clusters. The number of harvestable colored grape clusters was expressed as cumulative harvestable clusters (number of harvestable clusters per two vines). Average berry firmness, weight and Brix (soluble solids) were evaluated 5 days later. Evaluation samples consisted of 10 second shoulders (second lateral branch of the main rachis) from 10 different clusters selected randomly from each plot. All berries in the evaluation samples were removed, counted, and weighed. A sub-sample of 20 to 30 berries was crushed for brix (soluble solids) analysis. Brix was measured with a handheld temperature compensating Leica Refractometer. An additional 10 berries were selected randomly for berry firmness. Berry firmness was determined by a hand held Wilson Penetrometer (0 to 1000 g) mounted on a stand with a 6 mm tip.
Synergy was determined by an industrially accepted method (Kull et al., 1961, Applied Microbiology 9:538-541 and Robertson and Ramesh, 1998, U.S. Pat. No. 5,716,629). Synergy Index=Qa/QA+Qb/QB where:
Qa=dose of compound A in mg/vine, in the mixture, which produced an end point
QA=dose of compound A in mg/vine, acting alone, which produced an end point.
Qb=[…] of compound B in mg/vine, in the mixture, which produced an end point.
QB=dose of compound B in mg/vine, acting alone, which produced an end point.
Synergy, additivity, or antagonism are shown when the Synergy Index is less than one, equal to one, or greater than one, respectively.

[3] = system: red wine grape cultivar 'Cabernet Sauvignon'; test: Replicated field experiment on Cabernet Sauvignon wine grapes: grape quality at harvest; assay type: in vivo; settings: 200 ppm of each compound applied, foliar at veraison
Method: as §1

[4] = 88 mg/vine of each compound applied
[5] = 292 mg/vine of each compound applied
[6] = 200 ppm of each compound applied, foliar at veraison, Cabernet Sauvignon

## O=P(O)(O)CCCl [Ethephon]
[1]
  Wine assessment: 2.3
[1]; listed as ethephon
  Wine assessment: did not affect
[2]; [4]
  Firmness: 765 g
  Cumulative harvestable clusters: 9.2 no. per two vines
[2]; [5]
  Cumulative harvestable clusters: 15.7 no. per two vines
[2]; 877 mg/vine
  Firmness: 709 g
  Cumulative harvestable clusters: 40.2 no. per two vines
[2]
  Effect on cumulative harvestable cluster number (in words): increased
  Dose acting alone which produced the end point (QA, QB): 484 mg/vine

## (S)-5-(1-hydroxy-2,6,6,-trimethyl-4-oxo-2-cyclohexen-1-yl)-3-methyl-(2Z,4E)-pentadienoic acid [S-ABA]
[1]; [6]
  Wine color density: lower than in the untreated
  Wine phenolics: 20.2
[1]; 200 ppm of each compound applied, foliar at veraison, Cabernet Sauvignon, listed as ABA
  Wine color density: 5.6
[1]
  Wine assessment: higher wine assessment score
[1]; listed as ABA
  Wine assessment: 2.7
[3]
  Anthocyanins, grapes at harvest: lower than in the untreated
[3]; listed as ABA
  Anthocyanins, grapes at harvest: 0.78 mg/g
[2]; [4]
  Cumulative harvestable clusters: 11.8 no. per two vines
[2]; [5]
  Cumulative harvestable clusters: 38.0 no. per two vines
[2]; 877 mg/vine
  Cumulative harvestable clusters: 43.8 no. per two vines
[2]
  Effect on cumulative harvestable cluster number (in words): increased
  Dose acting alone which produced the end point (QA, QB): 337 mg/vine
